According to article PMC6627331, “Identification of Small Molecule Inhibitors of Staphylococcus aureus RnpA” (Antibiotics, 2019):
Values after ≈ are worked out from the molar mass of the structure shown. Like-named read-outs stand apart in the source and are kept apart here.

Tests used:
S. aureus UAMS-1 = experiment: Galleria mellonella model of S. aureus infection; type: in vivo; conditions: 10^4 CFU UAMS-1, single dose 100 mg·kg^−1 1 h post-infection, 16 h; DMSO 60%
Protocol: An overnight culture of S. aureus strain UAMS-1 was used to inoculate (1:100 dilution) 25 mL of fresh MH medium and growth at 37 °C on a rotary shaker at 225 rpm to exponential phase (~1 × 10^8 CFU mL^−1). Cultures were pelleted by centrifugation, washed with phosphate buffered saline (PBS), and re-suspended at ~1 × 10^7 CFU·mL^−1 in fresh PBS. G. mellonella larvae weighing 150–250 mg were inoculated with 5 µL of S. aureus into the last left proleg using a 10 µL Hamilton syringe. About 1 h after inoculation, one group of worms was treated with 2 µL DMSO as infected negative control; one group was treated with 2 µL JC2 compound at 100 mg/kg dose; another group was treated with 2 µL vancomycin at 100 mg/kg dose as standard-of-care comparison. Treatments were administered in the same manner as infection, except that each injection was in the next left proleg moving towards the head of the worm. […] In addition to the mock or compound treatment of infected larvae, a group of non-infected worm injected with DMSO or corresponding compounds were used to monitor the impact of physical trauma as well as observe toxicity associated with compound treatment.

[1] = molecular target: T1, S. aureus RNase P (RnpA + rnpB) (Staphylococcus aureus, UniProt P0A0H5); experiment: RnpA-dependent RNase P in vitro ptRNA^Tyr processing assay; type: biochemical; conditions: in vitro ptRNA^Tyr processing; read-out: Processing IC50
T1 construct: hexahistidine (His6) (N); made in house; host or cells: E. coli BL21 (DE3), plasmid pEXP5-nt
T1 sequence (P0A0H5 1-117): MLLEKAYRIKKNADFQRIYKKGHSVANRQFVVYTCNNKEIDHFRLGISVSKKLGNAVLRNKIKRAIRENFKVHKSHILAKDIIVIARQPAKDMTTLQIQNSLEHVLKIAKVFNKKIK
Protocol: S. aureus RNase P activity assays were performed according to conditions described previously. Briefly, ptRNA^Tyr and rnpB RNA species were first denatured by heating to 95 °C for 5 min then slow cooled to room temperature. RNase P was reconstituted by mixing an equal molar ratio of rnpB and RnpA for 15 min at 37 °C. Precursor tRNA processing inhibition reactions were performed by mixing 1.25 pmol of reconstituted RNase P (RnpA + rnpB) with an equal volume of 2× low salt buffer (50 mM Tris-HCl pH 8.0, 5 mM MgCl2) in the presence of DMSO (negative control) or the indicated compound (≤500 µM) and incubated for 5 min at 37 °C. 5 pmol ptRNA^Tyr was added and the mixture was incubated at 37 °C 15 min. Reactions were stopped by adding 2× RNA loading dye and heating at 65 °C for 10 min. Each sample was electrophoresed in a 7 M urea/8% polyacrylamide gel then stained with ethidium bromide. The Biorad EZ Gel Doc imaging system was used to visualize the RNA and relative abundance of the mature tRNA^Tyr band (% processing) in the negative control or in samples containing the indicated compounds and analyzed using Biorad Image Lab densitometry software. The inhibitory activity of the indicated compounds were calculated as a % inhibition using the following equation: […].
To assess IC50, % RNase P processing inhibition was plotted against compound concentration and a linear best fit equation was generated to calculate the IC50.

[2] = test system: norA mRNA in S. aureus UAMS-1 cells; experiment: Cellular norA mRNA turnover (qRT-PCR after rifampin arrest); type: cell-based, Staphylococcus aureus; conditions: 0.5× MIC for 30 min; 5 min post-transcriptional arrest; mock 99%
Protocol: S. aureus mRNA half-life determinations were performed as previously described. […] Rifampin (Sigma-Aldrich) was added to the culture at a final concentration of 200 μg·mL^−1 to inhibit de novo transcript synthesis. Half of the culture was immediately removed and combined with an equal volume of ice cold acetone:ethanol (1:1 v/v). The remaining culture was returned to the shaking 37 °C incubator for an additional 5 min and then subsequently combined with an equal volume of ice cold acetone:ethanol (1:1 v/v) and stored at −80 °C until processing, as described below.
For total bacterial RNA isolation, cell suspensions were thawed on ice, centrifuged at 3000 rpm for 10 min at 4 °C, the resulting cell pellets were resuspended in ice-cold TE buffer (10 mM Tris-HCl, pH 8.0, 1 mM EDTA), and transferred into a FastPrep bead beater tube containing 0.1 mm silica spheres (MP Biomedicals; Santa Ana, CA, USA). Mixtures were homogenized at 5 m·s^−1 for 20 s, rested on ice for 5 min, and then homogenized again at 4.5 m·s^−1 in a FastPrep-24 instrument. Cellular debris were collected by centrifugation at 13,000 rpm for 15 min at 4 °C, whereas bacterial RNA was isolated from the supernatant using Qiagen RNeasy Mini Kits and miRNeasy Mini Kits were used to isolate total bacterial RNA, following the manufacturer’s instructions. RNA quantity and quality were measured using a NanoDrop 2000 spectrophotometer (ThermoFisher Scientific). For qRT-PCR, 1 μg of total bacterial RNA was treated with 3 units of DNase I (Ambion; Carlsbad, CA, USA) for 1 h at 37 °C to remove any DNA contaminants. RNA cleanup was performed using the Qiagen RNeasy Mini Kit. Subsequently, the BioRad iScript cDNA Synthesis Kit (Hercules, CA, USA) was used to convert 200 ng of RNA into cDNA, which was amplified using the BioRad iQ SYBR Green Supermix per the manufacturer’s instructions and fluorescence was read on the Biorad CFX 96 Connect machine. Transcript levels were compared to the internal control 16S rRNA (ΔΔCt method), and plotted as a fold change compared to control. The following primer pairs were used in this study for qRT-PCR: norA forward—[…] and norA reverse-[…] CTAAG; -15 ptRNA^Tyr forward-[…] and tRNA^Tyr reverse-TGGTG […]; 16S rRNA forward-[…] and 16S rRNA reverse-[…].

[3] = test system: S. aureus RN4220 pML100::rnpA-KD; experiment: Cellular RnpA depletion hypersusceptibility growth curve; type: cell-based, Staphylococcus aureus; conditions: […] MIC JC2 or 0.5× MIC RNPA2000
Protocol: 100 μL of each culture was transferred to a 96 well flat bottom plate in duplicate and growth monitored by OD600 reading every 30 min over 8 h at 37 °C. Hypersusceptibility growth curves were averaged from two biological replicates in technical duplicate.

S. aureus BAA-1708 = experiment: MIC against clinical strain BAA-1708; type: cell-based, Staphylococcus aureus; conditions: S. aureus clinical strain BAA-1708
E. coli = experiment: Antimicrobial activity toward E. coli; type: cell-based, Escherichia coli
[4] = test system: S. aureus strain UAMS-1, USA300 or BAA-1708; experiment: Selection of spontaneous resistant cells in liquid culture; type: cell-based, Staphylococcus aureus; conditions: 24 h incubation in liquid culture, 2× MIC

SMILES: CC1CCCCN1C(=O)Nc1cc(Cl)cc(Cl)c1 (centres unmarked) [JC2]
- mortality rate of S. aureus infected worms (S. aureus UAMS-1): 30%
- IC50 [1]: 200 µM
- norA mRNA degradation [2]: 27%
- growth of RnpA-depleted cells (RnpA-KD) versus vector cells [3]: displayed a growth defect
- MIC (S. aureus BAA-1708): 1 µg/mL (≈ 3.48 µM)
- MIC (S. aureus BAA-1708; Staphylococcus aureus, BAA1708, read-out: MIC): 1 µg/mL (≈ 3.48 µM)
- antimicrobial activity toward E. coli (E. coli): did not shown antimicrobial activity
- selection of spontaneous resistant cells [4]: unable to select for spontaneous JC2 resistant
